Results on 25 compounds are retold here after patent US8283465B2, “Triazolopyridine compound, and action thereof as prolyl hydroxylase inhibitor or erythropoietin production-inducing agent” (Japan Tobacco Inc., priority 2009, dated 2012).

One assay deals with T1, human PHD2 (Homo sapiens, UniProt Q9GZT9).
T1 construct: made in house; host or cells: Sf9 insect cells (baculovirus, pVL1393 vector)
The assay is described as follows: Measurement of human PHD inhibitory activity (TR-FRET, hydroxylation of HIF-1α partial peptide). The following applies: human PHD2 enzyme 1 nM, 25° C. 30 min, values consisting solely of numbers; read-out: IC50 (μM) in vitro, human PHD inhibitory activity. The assay is classed as biochemical. The method, then: Human PHD2 was expressed in insect cell (Sf9 cell). […] The vector and baculovirus were cotransfected into Sf9, and human PHD2 expression baculovirus was isolated in Sf9. By using the virus, human PHD2-expressed cell was prepared. […] The cell lysate was flowed into a column filled with ANTI-FLAG M2 Affinity Gel Freezer Safe (SIGMA), washed, and the N-terminal FLAG-tag-added human PHD2 was eluted and collected.
VBC complex (VHL/Elongin B/Elongin C) was expressed in Escherichia coli (BL21(DE3)). […] After these expression vectors were transfected into Escherichia coli (BL21(DE3)), Escherichia coli was cultured at 37° C. in the medium containing IPTG. The collected Escherichia coli was disrupted by sonication and flowed into a column filled with Ni-NTA superflow (QIAGEN), washed, and the product was eluted and collected. The eluate was flowed into a column filled with Glutathione Sepharose 4B, washed, and the product was eluted and collected. […]
As for human PHD2 enzyme activity, hydroxylation of proline residue contained in the 19 residues of the partial peptide based on the sequence of HIF-1α as a substrate was measured by TR-FRET (Time-Resolved Fluorescence Resonance Energy Transfer) method.
A test compound and a substrate solution were added to a 96-well plate. The reaction was started by addition of a human PHD2 enzyme solution (final concentration 1 nM) to the reaction system. After incubation at 25° C. for 30 min, a stop solution containing EDTA was added, and a VBC complex solution containing europium (Eu) and Xlent was added, and the amount of hydroxylated proline residue was quantified by time-resolved fluorescence spectroscopy. The time-resolved fluorescence in each well was measured, and the human PHD inhibitory activity (%) of the test compound was calculated based on the values of enzyme non-addition well and test compound non-addition well.

The subject of assay [1] is human EPO production, Hep3B cells. The assay is described as follows: Human EPO production activity in Hep3B cells (EPO-ELISA of culture supernatant). The conditions noted are these: for EC50: Homo sapiens, 24 hr incubation, values consisting solely of numbers, read-out: EC50 (μM) in vitro, human EPO production activity; for production activity (%) at 30 μM in vitro, human EPO: 24 hr, values containing %, relative to maximum production. The assay is classed as cell-based. The procedure:
The activity of the test compound on human EPO production was measured using Hep3B (AMC) established from human liver-derived cell line.
Hep3B cells were cultured in Eagle-MEM medium containing 10% fetal bovine serum, and the test compound was diluted with dimethyl sulfoxide (DMSO).
Hep3B cells were cultured in a 96-well plate, and a test compound was added at each concentration 24 hr later. After incubation at 37° C. for 24 hr, the culture supernatant was collected. The concentration of human EPO produced in the culture supernatant was measured using a human EPO-ELISA kit (manufactured by StemCell Technologies, 01630) according to the manufacturer's explanation, and the human EPO production activity (%) of the test compound was calculated based on the maximum value of production under the above conditions and the value without addition of the test compound. […] In these Tables, the values consisting solely of numbers show EC50 (μM) and those containing % show human EPO production activity (%) at […].

Structures can show the parent of a compound that is named as a salt.

T1 sequence (Q9GZT9 whole entry): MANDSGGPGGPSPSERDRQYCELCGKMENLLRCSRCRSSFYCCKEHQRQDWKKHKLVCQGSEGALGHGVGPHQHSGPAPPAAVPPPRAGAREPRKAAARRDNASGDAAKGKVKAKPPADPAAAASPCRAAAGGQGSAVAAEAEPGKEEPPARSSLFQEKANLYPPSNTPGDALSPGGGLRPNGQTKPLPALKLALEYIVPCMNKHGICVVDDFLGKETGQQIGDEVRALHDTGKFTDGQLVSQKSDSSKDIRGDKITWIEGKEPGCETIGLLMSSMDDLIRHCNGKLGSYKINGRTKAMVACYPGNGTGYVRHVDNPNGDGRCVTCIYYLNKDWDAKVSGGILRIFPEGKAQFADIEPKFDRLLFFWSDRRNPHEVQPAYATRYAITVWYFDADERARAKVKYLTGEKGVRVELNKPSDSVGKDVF

With `O=C(O)CNC(=O)c1c(O)cc(CC2CCC2)n2ncnc12` [Example 53, [(5-cyclobutylmethyl-7-hydroxy[1,2,4]triazolo[1,5-a]pyridine-8-carbonyl)amino] acetic acid hydrochloride], the IC50 on human PHD2 was found to be 0.5 µM. Further, in assay [1], the EC50 is 8.9 µM.

`O=C(O)CNC(=O)c1c(O)cc(CC2CCCC2)n2ncnc12` [Example 20, [(5-cyclopentylmethyl-7-hydroxy[1,2,4]triazolo[1,5-a]pyridin-8-carbonyl)amino]acetic acid hydrochloride]: the IC50 at human PHD2 turned out to be 0.59 µM. Besides, in assay [1], the EC50 came out at 6.6 µM.

For the compound `O=C(O)CNC(=O)c1c(O)cc(-c2cccc(F)c2F)n2ncnc12` [Example 59, {[5-(2,3-difluorophenyl)-7-hydroxy[1,2,4]triazolo[1,5-a]pyridine-8-carbonyl]amino} acetic acid hydrochloride], the IC50 on human PHD2 worked out at 0.26 µM. Besides, the “production activity (%) at 30 μM in vitro, human EPO” value (shortened to “production activity (%) at 30 μM”) in assay [1] was 49%.

Consider `C[C@H](NC(=O)c1c(O)cc(-c2cc(F)cc(F)c2)n2ncnc12)C(=O)O` [Example 67, (S)-2-{[5-(3,5-difluorophenyl)-7-hydroxy[1,2,4]triazolo[1,5-a]pyridine-8-carbonyl]amino} propionic acid hydrochloride], for which the IC50 on human PHD2 amounted to 0.9 µM. Also, the EC50 in assay [1] was 14.3 µM.

In the case of `O=C(O)CNC(=O)c1c(O)cc(-c2cc(C(F)(F)F)cc(C(F)(F)F)c2)c2ncnn12` [Example 97, {[8-(3,5-bis-trifluoromethyl-phenyl)-6-hydroxy[1,2,4]triazolo[1,5-a]pyridine-5-carbonyl]amino} acetic acid hydrochloride], on human PHD2, the IC50 amounted to 0.13 µM. For the same compound, in assay [1], the EC50 is 3.5 µM.

In the case of `O=C(O)CNC(=O)c1c(O)cc(CCc2cc(F)cc(F)c2)n2ncnc12` [Example 19, ({5-[2-(3,5-difluorophenyl)ethyl]-7-hydroxy[1,2,4]triazolo[1,5-a]pyridine-8-carbonyl}amino)acetic acid hydrochloride], the IC50 at human PHD2 was 0.26 µM. The EC50 in assay [1] was 6.6 µM.

Take `O=C(O)CNC(=O)c1c(O)cc(-c2cc(F)cc(F)c2)n2ncnc12` [Example 21, {[5-(3,5-difluorophenyl)-7-hydroxy[1,2,4]triazolo[1,5-a]pyridine-8-carbonyl]amino}acetic acid]: on human PHD2, the IC50 was 0.25 µM. Further, in assay [1], the EC50 is 12 µM.

Regarding `O=C(O)CNC(=O)c1c(O)cc(-c2ccc(Cl)cc2F)n2ncnc12` [Example 62, {[5-(4-chloro-2-fluorophenyl)-7-hydroxy[1,2,4]triazolo[1,5-a]pyridine-8-carbonyl]amino} acetic acid hydrochloride], on human PHD2, the IC50 was found to be 0.28 µM. In assay [1], the concentration giving a half-maximal response (EC50) stood at 10.1 µM.

Take `O=C(O)CNC(=O)c1c(O)ccc2cnnn12` [Example 11, [(6-hydroxy[1,2,3]triazolo[1,5-a]pyridine-7-carbonyl)amino]acetic acid]: the IC50 on human PHD2 was 0.29 µM. Also, in assay [1], the “production activity (%) at 30 μM” value came out at 1%.

For the compound `O=C(O)CNC(=O)c1c(O)cc(CCc2ccc(C(F)(F)F)cc2)c2ncnn12` [Example 102, ({6-hydroxy-8-[2-(4-trifluoromethyl phenyl)ethyl] [1,2,4]triazolo[1,5-a]pyridine-5-carbonyl}amino) acetic acid hydrochloride], the IC50 on human PHD2 amounted to 0.51 µM. Besides, the EC50 in assay [1] came to 16 µM.

On to `O=C(O)CNC(=O)c1c(O)cc(CCc2ccc(F)cc2)c2ncnn12` [Example 90, ({8-[2-(4-fluorophenyl)-ethyl]-6-hydroxy[1,2,4]triazolo[1,5-a]pyridine-5-carbonyl}amino) acetic acid hydrochloride], for which the IC50 at human PHD2 was 0.29 µM. In addition, the concentration for a half-maximal effect (EC50) in assay [1] came out at 16.6 µM.

For the compound `CC(C)Cc1cc(O)c(C(=O)NCC(=O)O)c2ncnn12` [Example 43, [(7-hydroxy-5-isobutyl[1,2,4]triazolo[1,5-a]pyridine-8-carbonyl)amino]acetic acid], the IC50 on human PHD2 stood at 0.93 µM. Moreover, the EC50 in assay [1] came to 23.6 µM.

Take `O=C(O)CNC(=O)c1c(O)c(CCc2ccccc2)cn2ncnc12` [Example 5, [(7-hydroxy-6-phenethyl[1,2,4]triazolo[1,5-a]pyridine-8-carbonyl)amino]acetic acid hydrochloride]: the IC50 on human PHD2 worked out at 1.17 µM. In addition, the concentration for a half-maximal effect (EC50) in assay [1] is 11.5 µM.

As to `O=C(O)CNC(=O)c1c(O)cc(-c2ccc(F)c(Cl)c2)n2ncnc12` [Example 23, {[5-(3-chloro-4-fluorophenyl)-7-hydroxy[1,2,4]triazolo[1,5-a]pyridine-8-carbonyl]amino}acetic acid hydrochloride], the IC50 at human PHD2 was 0.19 µM. In addition, the EC50 in assay [1] was found to be 7.8 µM.

Turning to `CC(NC(=O)c1c(O)cc(-c2cc(F)cc(F)c2)n2ncnc12)C(=O)O` (centres unmarked) [Example 66, 2-{[5-(3,5-difluorophenyl)-7-hydroxy-[1,2,4]triazolo [1,5-a]pyridine-8-carbonyl]amino} propionic acid hydrochloride], the IC50 on human PHD2 stood at 1.5 µM. Besides, in assay [1], the EC50 stood at 21.1 µM.

In the case of `Cc1ccc(-c2cc(O)c(C(=O)NCC(=O)O)c3ncnn23)cc1` [Example 26, {[7-hydroxy-5-(p-tolyl)[1,2,4]triazolo[1,5-a]pyridine-8-carbonyl]amino}acetic acid hydrochloride], the IC50 on human PHD2 came to 0.33 µM. For the same compound, the EC50 in assay [1] came out at 7.5 µM.

With `O=C(O)CNC(=O)c1c(O)cc(-c2ccc(F)c(C(F)(F)F)c2)c2ncnn12` [Example 106, {[8-(4-fluoro-3-trifluoromethyl-phenyl)-6-hydroxy[1,2,4]triazolo[1,5-a]pyridine-5-carbonyl]amino} acetic acid hydrochloride], the concentration for half-maximal inhibition (IC50) on human PHD2 was found to be 0.23 µM. The EC50 in assay [1] was 6 µM.

As for `O=C(O)CNC(=O)c1c(O)cc(CCc2cc(F)cc(F)c2)c2ncnn12` [Example 109, ({8-[2-(3,5-difluoro-phenyl)-ethyl]-6-hydroxy[1,2,4]triazolo[1,5-a]pyridine-5-carbonyl}amino) acetic acid hydrochloride], at human PHD2, the IC50 is 0.17 µM. Moreover, the concentration giving a half-maximal response (EC50) in assay [1] was 13.7 µM.

With `Cl.O=C(O)CNC(=O)c1c(O)cc(CCc2cccc(C(F)(F)F)c2)c2ncnn12` [Example 101, ({6-hydroxy-8-[2-(3-trifluoromethyl phenyl)ethyl] [1,2,4]triazolo[1,5-a]pyridine-5-carbonyl}amino) acetic acid hydrochloride], the IC50 on human PHD2 was found to be 0.37 µM. In addition, the “production activity (%) at 30 μM” value in assay [1] was 6%.

For the compound `O=C(O)CNC(=O)c1c(O)cc(-c2cccc(F)c2)n2ncnc12` [Example 42, {[5-(3-fluorophenyl)-7-hydroxy[1,2,4]triazolo[1,5-a]pyridine-8-carbonyl]amino}acetic acid hydrochloride], at human PHD2, the IC50 was 0.24 µM. Besides, in assay [1], the EC50 came to 14.2 µM.

For `O=C(O)CNC(=O)c1c(O)cc(-c2ccccc2Cl)c2ncnn12` [Example 88, {[8-(2-chlorophenyl)-6-hydroxy[1,2,4]triazolo[1,5-a]pyridine-5-carbonyl]amino} acetic acid], the IC50 on human PHD2 came to 0.16 µM. In addition, the “production activity (%) at 30 μM” value in assay [1] worked out at 14%.

As for `O=C(O)CNC(=O)c1c(O)cc(-c2cc(C(F)(F)F)ccc2F)n2ncnc12` [Example 34, {[5-(2-fluoro-5-trifluoromethyl-phenyl)-7-hydroxy[1,2,4]triazolo[1,5-a]pyridine-8-carbonyl]amino}acetic acid hydrochloride], the IC50 on human PHD2 is 0.43 µM. Moreover, the 50% effective concentration (EC50) in assay [1] amounted to 15 µM.

As to `O=C(O)CNC(=O)c1c(O)cc(-c2cc(F)ccc2F)n2ncnc12` [Example 75, {[5-(2,5-difluorophenyl)-7-hydroxy[1,2,4]triazolo[1,5-a]pyridine-8-carbonyl]amino} acetic acid hydrochloride], on human PHD2, the IC50 was 0.21 µM. The EC50 in assay [1] was 23.7 µM.

In the case of `C[C@H](NC(=O)c1c(O)cc(CCc2ccccc2)n2ncnc12)C(=O)O` [Example 69, (S)-2-[(7-hydroxy-5-phenethyl[1,2,4]triazolo[1,5-a]pyridine-8-carbonyl)amino] propionic acid hydrochloride], the IC50 on human PHD2 was 1.62 µM. For the same compound, in assay [1], the concentration for a half-maximal effect (EC50) came to 12 µM.

Turning to `CCC(C)(C)CCc1cc(O)c(C(=O)NCC(=O)O)c2ncnn12` [Example 48, hydrochloride], the 50% inhibitory concentration (IC50) on human PHD2 is 0.59 µM. For the same compound, in assay [1], the concentration giving a half-maximal response (EC50) worked out at 4.5 µM.
